{
  "source": "patent US4358448A",
  "about": "“N-substituted thiazolyl derivatives of oxy-imino-substituted cephalosporins useful as anti-bacterial agents” (Farmitalia Carlo Erba S.p.A., priority 1979, dated 1982)",
  "key": {"[1]": {"test_system": "Bacteroides fragilis VPI 9032", "assay": "antibacterial activity against Bacteroides fragilis relative to Cefotaxime", "format": "cell-based", "settings": "in words"}, "[2]": {"assay": "approximate acute toxicity in the mouse, single intravenous administration", "settings": "in vivo, single intravenous administrations of increasing doses, measured on the seventh day", "from_the_text": "The toxicity of the compounds of the invention is quite negligible and therefore they can be safely used in therapy."}, "[3]": {"test_system": "streptococci", "assay": "antibacterial activity against streptococci, relative to reference cephalosporin", "format": "cell-based"}, "[4]": {"test_system": "most Gram-negative bacteria", "assay": "antibacterial activity against most Gram-negative bacteria, relative to reference cephalosporins", "format": "cell-based"}, "[5]": {"test_system": "Escherichia coli G, Klebsiella pneumoniae ATCC 10031, Proteus mirabilis ATCC 9921, Escherichia coli Tem., Haemophilus influenzae, Salmonella typhi Watson and …", "assay": "in vivo tests in infected mice", "settings": "in words"}, "[6]": {"test_system": "clinical isolates of indole-positive Proteus", "assay": "antibacterial activity against clinical isolates of indole-positive Proteus relative to HR-756", "format": "cell-based", "settings": "in words"}, "[7]": {"test_system": "beta-lactamase producers organisms, such as Klebsiella aerogenes 1082 E, Enterobacter cloacae P 99, Escherichia coli Tem", "assay": "antibacterial activity against beta-lactamase producers organisms", "format": "cell-based", "settings": "in words"}},
  "data": [
    {"smiles": "CO/N=C(\\C(=O)N[C@@H]1C(=O)N2C(C(=O)O)=C(CSc3ccc4nnnn4n3)CS[C@H]12)c1csc(=N)n1O", "note": "[FCE 20635, 7β-[2-(2-imino-3-hydroxy-4-thiazolinyl)-2-methoxyimino-acetamido]-3-[(tetrazolo[1,5-b]pyridazin-6-yl)-thiomethyl]-3-cephem-4-carboxylic acid (syn-isomer)]", "values": [
      {"measurement": "activity compared with Cefotaxime", "setting": "[1]", "value": "at least as active as Cefotaxime"},
      {"measurement": "LD50 at 168 h", "setting": "[2]", "value": "> 2000", "unit": "mg/kg"},
      {"measurement": "times more active than Cefazolin", "setting": "[3]", "value": "about 4 times"},
      {"measurement": "times more active than Cefazolin", "setting": "[4]", "value": "about 30 times"},
      {"measurement": "times more active than Cefuroxime", "setting": "[4]", "value": "about 40 times"},
      {"measurement": "activity in vivo tests", "setting": "[5]", "value": "high activity"},
      {"measurement": "activity compared with HR-756", "setting": "[6]", "value": "more active than HR-756"},
      {"measurement": "activity against most beta-lactamase producers organisms", "setting": "[7]", "value": "high activity"}
    ]}
  ]
}
